Like-named read-outs stand apart in the source and are kept apart here. Positions of bridges follow the written chain, without caps; N, C: chain ends. Non-standard residues stand in square brackets, D forms with d. Residues, ends and D or L forms follow the SMILES beside them. Leu(3R-O(AcLeu(3R-OH))) = CC(=O)N[C@H](C(=O)O[C@H](C(C)C)[C@H](N)C(=O)O)[C@H](O)C(C)C; NMeT = CN[C@H](C(=O)O)[C@@H](C)O; dPhLac = O=C(O)[C@H](O)Cc1ccccc1; NMeA = CN[C@@H](C)C(=O)O; NMeDha = C=C(NC)C(=O)O
What was measured:
92.1 uveal melanoma = assay: Resazurin-based viability assay, 92.1 uveal melanoma cells; type: cell-based
Experimental: (§1) Following drug treatment for 96 or 120 hours, cell viability and proliferation were determined using a resazurin-based viability assay. Briefly, cells were incubated with a resazurin-based solution and color change was detected by absorbance with a spectrophotometer and used as a readout of cell viability. Data presented as mean of 3 independent replicates and relative to PBS-treated cells (control).
as §1, with “(control) (FIG. 6).” for “(control).”
Following drug treatment for 96 or 120 hours, cell viability and proliferation were determined using a resazurin-based viability assay. Data presented as mean of 3 independent replicates and relative to PBS-treated cells (control) (FIG. 8).
as §1

[1] = system: MIAPACA pancreatic ductal adenocarcinoma cells; assay: Resazurin-based viability assay, MIAPACA cells; type: cell-based; conditions: Homo sapiens, MIA PaCa-2, WT, 96 or 120 hours, Table 4
Experimental: as §1, with “92.1 uveal melanoma and MIAPACA pancreatic ductal adenocarcinoma cells were seeded at low cell density in 96-well plates and treated with increasing concentrations of Compound (A1) or Compound (A2) as indicated. Following” for “Following”

92.1 cells = assay: Annexin V flow cytometry apoptosis assay, 92.1 cells; type: cell-based; conditions: 92.1 and MIAPACA cells, FIG. 2
Experimental: (§2) 92.1 and MIAPACA cells were seeded in 96-well plates (5000 cells per well) and treated with increasing concentrations of Compound (A1), Compound (A2), and a fixed dose of Staurosporine (100 nM, positive control) as indicated. Following drug treatment for 96, cells were subjected to fluorescence-activated flow cytometry using an Annexin V antibody conjugated to a fluorescent dye. Data presented as mean of 3 independent replicates.
as §2, with “92.1” for “92.1 and MIAPACA”, “3207-(B1) (Isotype control), G4-(B1),” for “Compound (A2),”, “G1-(B1)” for “a fixed dose of Staurosporine (100 nM, positive control)”

GNAQ/11 = assay: IP1 levels by TR-FRET in 92.1 uveal melanoma cells; type: cell-based; conditions: 92.1 cells, overnight treatment, FIG. 3A
Experimental: (§3) 92.1 uveal melanoma were treated with increasing concentrations of Compound (A1) or Compound (A2) as indicated. Following drug treatment overnight, cells were processed for determination of IP1 levels using TR-FRET (time-resolved fluorescent resonance energy transfer) or protein levels by western-blotting.
92.1 uveal melanoma were treated with DMSO, Compound (A1) (8 nM) and increasing concentrations of Isotype-(B1), anti-PMEL17-(B1) and anti-PMEL17-(B2) ADCs as indicated. Following drug treatment for 2 days, cells were processed for determination of IP1 levels using TR-FRET (time-resolved fluorescent resonance energy transfer). IP1 levels (nM) are presented as mean of 3 independent replicates.

ERK signaling = assay: Western-blotting of 92.1 cells, ERK signaling; type: cell-based; conditions: FIG. 3C
Experimental: as §3

[2] = Chemical stability of Compound (A2) in three different systems; type: physicochemical; conditions: FIG. 5B
Experimental: (§4) In vitro stability of Compound (A2) was tested in plasma and blood from different species (FIG. 5A). […]

[3] = PK of Compound (A2) in female balb/c mice; type: in vivo
Experimental: as §4

[4] = Stability of Compound (A2), hepatic microsomes, mouse; type: in vitro ADME; conditions: intrinsic clearance
Experimental: as §4

[5] = Stability of Compound (A2), hepatic microsomes, rat; type: in vitro ADME; conditions: intrinsic clearance
Experimental: as §4

[6] = Stability of Compound (A2), hepatic microsomes, human; type: in vitro ADME; conditions: intrinsic clearance
Experimental: as §4

[7] = Stability of Compound (A2), hepatocytes, rat; type: in vitro ADME
Experimental: as §4

[8] = Stability of Compound (A2), hepatocytes, human; type: in vitro ADME
Experimental: as §4

[9] = Stability of Compound (A2), hepatic S9 fraction, mouse; type: in vitro ADME; conditions: read-out: Hepatic S9 (+/−NADPH) t½ (converted)
Experimental: as §4

[10] = Stability of Compound (A2), hepatic S9 fraction, rat; type: in vitro ADME
Experimental: as §4

[11] = Stability of Compound (A2), hepatic S9 fraction, human; type: in vitro ADME; conditions: read-out: Hepatic S9 (+/−NADPH) t½ (converted)
Experimental: as §4

[12] = Stability of Compound (A2), plasma, mouse; type: in vitro ADME; conditions: read-out: Plasma t½ (converted)
Experimental: as §4

[13] = Stability of Compound (A2), plasma, rat; type: in vitro ADME; conditions: read-out: Plasma t½ (converted)
Experimental: as §4

[14] = Stability of Compound (A2), plasma, human; type: in vitro ADME; conditions: read-out: Plasma t½ (converted)
Experimental: as §4

[15] = Stability in buffer at pH 5.6 and in lysosomes; type: in vitro ADME; conditions: buffer pH 5.6, lysosomes, 4 h, FIG. 5D
Experimental: as §4

Question: Which GI50 (92.1 uveal melanoma; 92.1, GNAQ^Q209L, 96 or 120 hours, Table 4, read-out: GI50) does the source give for `C=C1C(=O)N[C@@H](C)C(=O)N(C)[C@@H](C)C(=O)N[C@@H]([C@H](OC(=O)[C@@H](NC(C)=O)[C@H](O)C(C)C)C(C)C)C(=O)N(C)[C@@H]([C@@H](C)OC)C(=O)O[C@H](C)[C@H](NC(C)=O)C(=O)O[C@H](Cc2ccccc2)C(=O)N1C` [Compound (A2), (R)-1-((3S,6S,9S,12S,18R,21S,22R)-21-acetamido-18-benzyl-3-((R)-1-methoxyethyl)-4,9,10,12,16,22-hexamethyl-15-methylene-2,5,8,11,14,17,20-heptaoxo-1,19-dioxa-4,7,10,13,16-pentaazacyclodocosan-6-yl)-2-methylpropyl (2S,3R)-2-acetamido-3-hydroxy-4-methylpentanoate] (Ac-T[dPhLac][NMeDha]A[NMeA][Leu(3R-O(AcLeu(3R-OH)))][NMeT](Me); ester 1-C) here?
Answer: 7.7 nM

Question: What about the GI50 (92.1 uveal melanoma; 92.1 GNAQ^Q209L, Table 1, read-out: GI50 (nM) 92.1GNAQ^Q209L) of the same compound?
Answer: 22.1 nM

Question: And the anti-UM activity (92.1 uveal melanoma; 92.1 vs MIAPACA, FIG. 1)?
Answer: potent target-dependent anti-UM activity

Question: What about the GI50 [1] of the same compound?
Answer: > 10000 nM

Question: And the “apoptosis (Annexin V)” value (92.1 cells)?
Answer: induced apoptosis in UM cells in GNAQ/11 dependent manner

Question: And the IP1 levels (GNAQ/11)?
Answer: reduced IP1 levels

Question: And the “ERK signaling (immunoblots)” value (ERK signaling)?
Answer: reduced ERK signaling

Question: What about the chemical stability [2] of the same compound?
Answer: good chemical stability in three different systems

Question: What about the clearance ([3]; FIG. 5C) of the same compound?
Answer: high clearance

Question: And the elimination half-life ([3]; FIG. 5C)?
Answer: short elimination half-life

Question: What about the half-life ([3]; mouse, in vivo, 1 mg/kg iv) of the same compound?
Answer: 0.4 ± 0.01 h

Question: And the clearance ([3]; mouse, in vivo, 1 mg/kg iv, read-out: CL)?
Answer: 175 ± 29 mL/min/kg

Question: And the “Hepatic microsomes” value [4]?
Answer: 0.107 mL/min/kg

Question: What about the “Hepatic microsomes” value [5] of the same compound?
Answer: 0.033 mL/min/kg

Question: What about the “Hepatic microsomes” value [6] of the same compound?
Answer: 0.044 mL/min/kg

Question: And the “Hepatocytes (ul/min/10^6 cells)” value [7]?
Answer: 8 ul/min/10^6 cells

Question: And the “Hepatocytes (ul/min/10^6 cells)” value [8]?
Answer: <4 ul/min/10^6 cells

Question: And the half-life ([9]; +NADPH)?
Answer: 1.9 h

Question: And the half-life ([9]; −NADPH)?
Answer: > 2 h

Question: What about the half-life ([10]; hepatic S9 fraction, +NADPH, read-out: Hepatic S9 (+/−NADPH) t½) of the same compound?
Answer: > 2 h

Question: And the “Hepatic S9 (+/−NADPH) t½ (h)” value ([10]; −NADPH)?
Answer: >2/>2 h

Question: And the half-life ([11]; +NADPH)?
Answer: 1.9 h

Question: And the half-life ([11]; −NADPH)?
Answer: > 2 h

Question: And the half-life [12]?
Answer: 2.1 h

Question: And the half-life [13]?
Answer: 4.1 h

Question: And the half-life [14]?
Answer: 2 h

Question: And the “stability in buffer and lysosomes” value [15]?
Answer: stable in buffer at pH 5.6 and in lysosomes over 4 h
